# Experiment: Binding affinity was determined against uridine phosphorylase in Sarcoma 180 cells
# Format: cell-based
row,Compound,Ki [nM]
1,NCC(CO)OCn1cc(Cc2ccccc2)c(=O)[nH]c1=O (stereo not drawn),20
2,O=c1[nH]c(=O)n(COC(CO)CO)cc1Cc1ccccc1,98
3,O=c1[nH]c(=O)n(COCCO)cc1Cc1ccccc1,98

# Source: ChEMBL document CHEMBL1122907, “Synthesis of 1-[[2-hydroxy-1-(hydroxymethyl)ethoxy] methyl]-5-benzyluracil and its amino analogue, new potent uridine phosphorylase inhibitors with high water solubility” (J Med Chem, 1985)
